Key:
Format in all cases: functional, HEK293
[1] = tested on: Human immunodeficiency virus 1; assay: Antiviral activity against HIV1 A8 isolate with protease I84A mutation in HEK 293 cells relative to wild type
[2] = tested on: Human immunodeficiency virus 1; assay: Antiviral activity against HIV1 A1 isolate with protease I84A mutation in HEK 293 cells relative to wild type
[3] = tested on: Human immunodeficiency virus 1; assay: Antiviral activity against HIV1 A2 isolate with protease I84A mutation in HEK 293 cells relative to wild type
[4] = tested on: Human immunodeficiency virus 1; assay: Antiviral activity against HIV1 A3 isolate with protease I84A mutation in HEK 293 cells relative to wild type
[5] = tested on: Human immunodeficiency virus 1; assay: Antiviral activity against HIV1 A4 isolate with protease I84A mutation in HEK 293 cells relative to wild type
[6] = tested on: Human immunodeficiency virus 1; assay: Antiviral activity against HIV1 A5 isolate with protease I84A mutation in HEK 293 cells relative to wild type
[7] = tested on: Human immunodeficiency virus 1; assay: Antiviral activity against HIV1 A6 isolate with protease I84A mutation in HEK 293 cells relative to wild type
[8] = tested on: Human immunodeficiency virus 1; assay: Antiviral activity against HIV1 A7 isolate with protease I84A mutation in HEK 293 cells relative to wild type
[9] = tested on: Human immunodeficiency virus 1; assay: Antiviral activity against HIV1 A9 isolate with protease I84A mutation in HEK 293 cells relative to wild type
[10] = tested on: Human immunodeficiency virus 1; assay: Antiviral activity against HIV1 A10 isolate with protease I84A mutation in HEK 293 cells relative to wild type
[11] = tested on: Human immunodeficiency virus 1; assay: Antiviral activity against HIV1 A11 isolate with protease I84A mutation in HEK 293 cells relative to wild type
[12] = tested on: Human immunodeficiency virus 1; assay: Antiviral activity against HIV1 A12 isolate with protease I84A mutation in HEK 293 cells relative to wild type
[13] = tested on: Human immunodeficiency virus 1; assay: Antiviral activity against HIV1 A13 isolate with protease I84A mutation in HEK 293 cells relative to wild type
[14] = tested on: Human immunodeficiency virus 1; assay: Antiviral activity against HIV1 A14 isolate with protease I84A mutation in HEK 293 cells relative to wild type
[15] = tested on: Human immunodeficiency virus 1; assay: Antiviral activity against HIV1 A15 isolate with protease I84A mutation in HEK 293 cells relative to wild type
[16] = tested on: Human immunodeficiency virus 1; assay: Antiviral activity against HIV1 C1 isolate with protease I84C mutation in HEK 293 cells relative to wild type
[17] = tested on: Human immunodeficiency virus 1; assay: Antiviral activity against HIV1 C2 isolate with protease I84C mutation in HEK 293 cells relative to wild type
[18] = tested on: Human immunodeficiency virus 1; assay: Antiviral activity against HIV1 C3 isolate with protease I84C mutation in HEK 293 cells relative to wild type
[19] = tested on: Human immunodeficiency virus 1; assay: Antiviral activity against HIV1 C4 isolate with protease I84C mutation in HEK 293 cells relative to wild type
[20] = tested on: Human immunodeficiency virus 1; assay: Antiviral activity against HIV1 C5 isolate with protease I84C mutation in HEK 293 cells relative to wild type
[21] = tested on: Human immunodeficiency virus 1; assay: Antiviral activity against HIV1 C6 isolate with protease I84C mutation in HEK 293 cells relative to wild type
[22] = tested on: Human immunodeficiency virus 1; assay: Antiviral activity against HIV1 C7 isolate with protease I84C mutation in HEK 293 cells relative to wild type
[23] = tested on: Human immunodeficiency virus 1; assay: Antiviral activity against HIV1 C8 isolate with protease I84C mutation in HEK 293 cells relative to wild type
[24] = tested on: Human immunodeficiency virus 1; assay: Antiviral activity against HIV1 C9 isolate with protease I84C mutation in HEK 293 cells relative to wild type
[25] = tested on: Human immunodeficiency virus 1; assay: Antiviral activity against HIV1 C10 isolate with protease I84C mutation in HEK 293 cells relative to wild type
[26] = tested on: Human immunodeficiency virus 1; assay: Antiviral activity against HIV1 C11 isolate with protease I84C mutation in HEK 293 cells relative to wild type
[27] = tested on: Human immunodeficiency virus 1; assay: Resistance to HIV1 with protease 46I, 54V and I84V mutation in HEK 293 cells relative to similar background
[28] = tested on: Human immunodeficiency virus 1; assay: Resistance to HIV1 with protease 46M, 54I and I84V mutation in HEK 293 cells relative to similar background
[29] = tested on: Human immunodeficiency virus 1; assay: Resistance to HIV1 with protease 46M, 54I and I84C mutation in HEK 293 cells relative to similar background
[30] = tested on: Human immunodeficiency virus 1; assay: Resistance to HIV1 with protease 46I, 54I and I84V mutation in HEK 293 cells relative to similar background
[31] = tested on: Human immunodeficiency virus 1; assay: Resistance to HIV1 with protease 46I, 54I and I84A mutation in HEK 293 cells relative to similar background
[32] = tested on: Human immunodeficiency virus 1; assay: Resistance to HIV1 with protease 46I/L, 54I and I84C mutation in HEK 293 cells relative to similar background
[33] = tested on: Human immunodeficiency virus 1; assay: Resistance to HIV1 with protease 46I, 54M/V and I84A mutation in HEK 293 relative to similar background

SMILES | Fold change [1] | Fold change [2] | Fold change [3] | Fold change [4] | Fold change [5] | Fold change [6] | Fold change [7] | Fold change [8] | Fold change [9] | Fold change [10] | Fold change [11] | Fold change [12] | Fold change [13] | Fold change [14] | Fold change [15] | Fold change [16] | Fold change [17] | Fold change [18] | Fold change [19] | Fold change [20] | also measured
CC(C)(C)NC(=O)[C@@H]1CN(Cc2cccnc2)CCN1C[C@@H](O)C[C@@H](Cc1ccccc1)C(=O)N[C@H]1c2ccccc2C[C@H]1O.O | 400 | 73 | 27 | 78 | 58 | 53 | 38 | 92 | 138 | 400 | 73 | 400 | 178 | 152 | 118 | 1.2 | 1.3 | 4.1 | 11 | 3.8 | Fold change [21]: 63; Fold change [22]: 42; Fold change [23]: 6.4; Fold change [24]: 5.5; Fold change [25]: 5.5; Fold change [26]: 5.7; Fold change [27]: 19; Fold change [28]: 2.4; Fold change [29]: 4.1; Fold change [30]: 9.1; Fold change [31]: 73; Fold change [32]: 8.6; Fold change [33]: 178
CC(C)c1nc(CN(C)C(=O)N[C@H](C(=O)N[C@@H](Cc2ccccc2)C[C@H](O)[C@H](Cc2ccccc2)NC(=O)OCc2cncs2)C(C)C)cs1 [RITONAVIR] | 86 | 60 | 85 | 76 | 42 | 54 | 34 | 141 | 167 | 400 | 73 | 400 | 400 | 105 | 400 | 1.6 | 8.6 | 10 | 9.1 | 15 | Fold change [21]: 22; Fold change [22]: 60; Fold change [23]: 14; Fold change [24]: 20; Fold change [25]: 29; Fold change [26]: 15; Fold change [27]: 49; Fold change [28]: 6.7; Fold change [29]: 10; Fold change [30]: 11; Fold change [31]: 74; Fold change [32]: 18; Fold change [33]: >400
